According to PMC6270099, “Synthesis, Biological Evaluation, and Pharmacokinetic Study of Novel Liguzinediol Prodrugs” (Molecules, 2013):
Where two headings read alike, the source gives them in different places.

Key:
[1] = In vitro physiological stability and formation of parent compound in rat plasma; format: in vitro ADME; conditions: 37 °C, up to 3 h
Method: Analysis was performed by using a Waters Alliance HPLC system (2695 pump, and 2489 PDA detector) with the following chromatographic parameters: wavelength, 278 nm; injection volume, 20 μL; run time, 20 min. The chromatographic separation was performed on an Phecda C18 (4.6 mm × 250 mm, 5 μm) column with a gradient elution of methanol and deionized water. Flow rate was 1.0 mL/min at 30 °C.
Rat plasma was harvested from in-house rats. Fresh blood was collected from the male rat using a retro-orbital bleeding method in a tube containing heparin (100 IU/mL blood). After the collection of blood, plasma was separated from the blood by centrifugation at 5,000 rpm for 10 min. The supernatant plasma was separated and utilized for the further experiment.
The test compound in aqueous solution 30 mM (20 μL) was dissolved in rat plasma (980 μL). Immediately after addition (0 min), aliquots (100 μL) were removed and added to ice cold dissolvent (ethanol-ethyl acetate = 1:4 v/v, 1 mL) and mixed well by vortexing for 2 min. The mixture was centrifuged at 12,000 rpm for 10 min, and the supernatant was diluted with methanol and analyzed by HPLC. After 0 min, the remaining sample was incubated at 37 °C for 1, 2, and 3 h. […]

[2] = set-up: method as in earlier work; conditions: cited from earlier work; for AUC0–t / AUC0–∞ / Cmax / Tmax / t1/2: rat

metabolic stability [1]: fairly stable
SMILES: Cc1nc(CO)c(C)nc1CO [1a, Liguzinediol]
AUC0–t ([2]; LZDO 10 mg·kg^−1 i.g.): 16.74 ± 8.90 µg·h/mL
AUC0–∞ ([2]; LZDO 10 mg·kg^−1 i.g.): 17.08 ± 8.99 µg·h/mL
Cmax ([2]; LZDO 10 mg·kg^−1 i.g.): 8.58 ± 2.66 µg/mL
Tmax ([2]; LZDO 10 mg·kg^−1 i.g.): 0.29 ± 0.10 h
t1/2 ([2]; LZDO 10 mg·kg^−1 i.g.): 2.21 ± 1.11 h
AUC0–t ([2]; LZDO 20 mg·kg^−1 i.g.): 34.84 ± 24.64 µg·h/mL
AUC0–∞ ([2]; LZDO 20 mg·kg^−1 i.g.): 35.93 ± 24.08 µg·h/mL
Cmax ([2]; LZDO 20 mg·kg^−1 i.g.): 17.02 ± 5.50 µg/mL
Tmax ([2]; LZDO 20 mg·kg^−1 i.g.): 0.29 ± 0.10 h
t1/2 ([2]; LZDO 20 mg·kg^−1 i.g.): 2.57 ± 2.14 h
AUC0–t ([2]; LZDO 50 mg·kg^−1 i.g.): 92.85 ± 64.10 µg·h/mL
AUC0–∞ ([2]; LZDO 50 mg·kg^−1 i.g.): 94.82 ± 66.88 µg·h/mL
Cmax ([2]; LZDO 50 mg·kg^−1 i.g.): 49.33 ± 10.50 µg/mL
Tmax ([2]; LZDO 50 mg·kg^−1 i.g.): 0.29 ± 0.10 h
t1/2 ([2]; LZDO 50 mg·kg^−1 i.g.): 1.78 ± 0.57 h
half-life ([2]; after intragastric administration, rats): about 2 h
